| melting point | Structure (SMILES) |
| --- | --- |
| 166 °C | CC(C#N)(NC(=O)c1c(Cl)cccc1Cl)c1ncc(C(F)(F)F)cc1Cl (centres unmarked) [Compound 110, N-[1-(3-Chloro-5-trifluoromethyl-2-pyridyl)-1-cyanoethyl]-2,6-dichlorobenzamide] |
| 122 to 126 °C | O=[N+]([O-])c1ccccc1CC(=NO)NCc1ncc(C(F)(F)F)cc1Cl |

From patent US6630495B1, “Fungicides” (priority 1999, dated 2003)
